According to patent US9605005B2, “Alkynyl alcohols and methods of use” (Genentech, Inc., priority 2013, dated 2017):

Experiments:
[1] = test system: REL-A (p65) nuclear translocation, HeLa cells; assay: REL-A (p65) nuclear translocation assay in HeLa cells (classical NF-kB signaling, TNF-α stimulated); assay type: cell-based; settings: Homo sapiens, 0.5 h; HeLa cells, 10 ng/mL TNF-α for 30 minutes; read-out: REL-A HeLa Transloc Assay (IC50)
Protocol: (§1) Several assays were developed to profile the cellular activities of NIK inhibitors.
(§2) (2) A second set of cell assay are used to define the selectivity of NIK inhibitors toward inhibition of classical vs. non-classical NF-kB signaling and rely on quantification of the nuclear translocation of p52 (NF-kB2) and REL-A (p65) using high content cellular imaging. For the p52 (non-classical NF-kB signaling) nuclear translocation assay, HeLa cells are treated with different concentrations of compounds (0.2% DMSO final) in medium containing 10% fetal bovine serum and then stimulated with 100 ng/mL of an anti-lymphotoxin beta receptor antibody (R&D Systems) for 5 hours. In the REL-A nuclear translocation assay, HeLa cells are incubated with compounds (0.2% DMSO final) for 4.5 hours in medium containing 10% fetal bovine serum before stimulating them with 10 ng/mL tumor necrosis factor (TNF)-α (R&D Systems) for 30 minutes. Cells are fixed with 4% paraformaldehyde, permeabilized by adding 0.1% Triton X-100 in phosphate buffered saline, and then are incubated with either 2 ug/mL anti-p52 antibody (Millipore) or 400 ng/mL anti-REL-A (p65) antibody (Santa Cruz Biotechnology). Finally, the cells are incubated with an Alexa488-labeled secondary antibody (Invitrogen) and DRAQ5 DNA stain (Biostatus). Imaging is carried out using an Opera reader (Perkin Elmer) and data are analyzed with the aid of Acapella software (Perkin Elmer). The p52 or REL-Atranslocation into the nucleus is quantified by the ratio of the nuclear to cytoplasmic signal intensity. […] The compounds in listed in Table 1 have the corresponding inhibitory value (IC50 in micromolar) for NIK p52 Translocation Assay as set forth in Table 2.
(§3) The compounds in listed in Table 1 have the corresponding inhibitory values (IC50 in micromolar) for the Translocation Assays as set forth in Table 2.

[2] = molecular target: nuclear factor-kappa B (NF-kB)-inducing kinase (NIK) (Homo sapiens (Human), UniProt Q99558); assay: NIK enzyme inhibition assay (Transcreener ADP, NIK ADP-FP); assay type: biochemical; settings: purified NIK 0.5 nM, 10 μM ATP, fluorescence polarization; read-out: NIK ADP-FP (Ki μM)
nuclear factor-kappa B (NF-kB)-inducing kinase (NIK), sequence (Q99558 whole entry): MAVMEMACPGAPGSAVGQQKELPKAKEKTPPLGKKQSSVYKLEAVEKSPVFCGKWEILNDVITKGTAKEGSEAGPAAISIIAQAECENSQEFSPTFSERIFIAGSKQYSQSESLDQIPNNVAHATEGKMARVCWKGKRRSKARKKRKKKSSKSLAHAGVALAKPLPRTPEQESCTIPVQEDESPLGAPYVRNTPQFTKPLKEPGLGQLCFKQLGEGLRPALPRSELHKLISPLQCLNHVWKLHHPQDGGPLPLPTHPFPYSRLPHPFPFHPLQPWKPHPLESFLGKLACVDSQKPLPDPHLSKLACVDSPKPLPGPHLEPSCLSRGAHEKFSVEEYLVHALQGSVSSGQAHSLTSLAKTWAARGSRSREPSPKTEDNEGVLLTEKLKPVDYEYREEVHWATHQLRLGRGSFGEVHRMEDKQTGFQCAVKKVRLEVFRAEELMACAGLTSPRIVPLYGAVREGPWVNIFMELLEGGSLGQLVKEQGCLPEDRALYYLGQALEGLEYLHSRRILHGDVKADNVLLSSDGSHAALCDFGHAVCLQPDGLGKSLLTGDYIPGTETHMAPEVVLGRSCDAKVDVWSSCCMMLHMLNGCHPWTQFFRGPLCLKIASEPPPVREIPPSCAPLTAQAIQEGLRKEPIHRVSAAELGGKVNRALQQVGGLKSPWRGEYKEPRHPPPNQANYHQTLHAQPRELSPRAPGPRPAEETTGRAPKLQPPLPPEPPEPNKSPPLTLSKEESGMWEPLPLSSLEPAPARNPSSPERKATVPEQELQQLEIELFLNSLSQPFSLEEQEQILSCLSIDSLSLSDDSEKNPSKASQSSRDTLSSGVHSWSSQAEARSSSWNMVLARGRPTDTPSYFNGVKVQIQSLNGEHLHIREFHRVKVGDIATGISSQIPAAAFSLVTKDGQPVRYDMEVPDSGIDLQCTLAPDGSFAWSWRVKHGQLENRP

[3] = test system: p52 (NF-kB2) nuclear translocation, HeLa cells; assay: p52 (NF-kB2) nuclear translocation assay in HeLa cells (non-classical NF-kB signaling, anti-lymphotoxin beta receptor antibody stimulated); assay type: cell-based; settings: Homo sapiens, 100 ng/mL anti-lymphotoxin beta receptor antibody for 5 hours, read-out: p52 HeLa Transloc Assay (IC50)
Protocol: as §1, §2, §3

| SMILES | IC50 [1] [nM] | Ki [2] [nM] | IC50 [3] [nM] |
| --- | --- | --- | --- |
| CN1CC[C@@](O)(C#Cc2cccc(-n3nc(C(N)=O)c4c3CCC[C@@H]4O)c2)C1=O [Compound 3, (4S)-4-hydroxy-1-[3-[2-[(3R)-3-hydroxy-1-methyl-2-oxo-pyrrolidine-3-yl]ethynyl]phenyl]-4,5,6,7-tetrahydroinda-zole-3-carboxamide] | 20000 | 1.13 | 544 |
| CN1CC[C@@](O)(C#Cc2ccnc(-n3nc(C(N)=O)c4c3C[C@@]3(C)C[C@H]3C4)c2)C1=O [Compound 6, (4aS,5aR)-1-[4-[2-[(3R)-3-hydroxy-1-methyl-2-oxo-pyrroli-din-3-yl]ethynyl]-2-pyri-dyl]-5a-methyl-4,4a,5,6-tetrahydrocyclopropa[f]inda-zole-3-carboxamide] | 10000 | 7.78 | 901 |
| CN1CC[C@@](O)(C#Cc2ccnc(-n3nc(C(N)=O)c4c(F)cccc43)c2)C1=O [Compound 10, 4-fluoro-1-[4-[2-[(3R)-3-hy-droxy-1-methyl-2-oxo-pyrroli-din-3-yl]ethynyl]-2-pyri-dyl]indazole-3-carboxamide] | 20000 | 1.19 | 66.3 |
| CN1CC[C@@](O)(C#Cc2cccc(-n3nc(C(N)=O)c4c3OCCC4)c2)C1=O [Compound 12, 1-[3-[2-[(3R)-3-hydroxy-1-methyl-2-oxo-pyrrolidin-3-yl]ethynyl]phenyl]-5,6-dihydro-4H-pyrano[2,3-c]pyrazole-3-carboxamide] | 20000 | 1.56 | 187 |
| COc1ccc2c(c1)c(C(N)=O)nn2-c1cccc(C#C[C@]2(O)CCN(C)C2=O)c1 [Compound 14, 1-[3-[2-[(3R)-3-hydroxy-1-methyl-2-oxo-pyrrolidin-3-yl]ethynyl]phenyl]-5-methoxy-indazole-3-carboxamide] | 20000 | 0.05 | 67.8 |
| CN1CC[C@@](O)(C#Cc2cccc(-n3nc(C(N)=O)c4c3CCN(C(=O)OC(C)(C)C)C4)c2)C1=O [Compound 16, tert-butyl 3-carbamoyl-1-[3-[2-[(3R)-3-hydroxy-1-methyl-2-oxo-pyrrolidin-3-yl]ethynyl]phe-nyl]-6,7-dihydro-4H-pyrazolo [4,3-c]pyridine-5-carboxylate] | 20000 | 0.9 | 125 |
| CN1CC[C@@](O)(C#Cc2cc(F)cc(-n3nc(C(N)=O)c4cccnc43)c2)C1=O [Compound 18, 1-[3-fluoro-5-[2-[(3R)-3-hy-droxy-1-methyl-2-oxo-pyrroli-din-3-yl]ethynyl]phenyl] pyrazolo[3,4-b]pyridine-3-carboxamide] | 20000 | 0.86 | 138 |
| COc1ccc2c(C(N)=O)nn(-c3cccc(C#C[C@]4(O)CCN(C)C4=O)c3)c2c1 [Compound 22, 1-[3-[2-[(3R)-3-hydroxy-1-methyl-2-oxo-pyrrolidin-3-yl]ethynyl]phenyl]-6-methoxy-indazole-3-carboxamide] | 20000 | 0.34 | 94.8 |
| Cc1nc2c(s1)c(C(N)=O)nn2-c1cccc(C#C[C@]2(O)CCN(C)C2=O)c1 [Compound 25, 1-[3-[2-[(3R)-3-hydroxy-1-methyl-2-oxo-pyrrolidin-3-yl]ethynyl]phenyl]-5-methyl-pyrazolo[3,4-d]thiazole-3-carboxamide] | 20000 | 0.41 | 44.6 |
| Cc1nnc([C@](C)(O)C#Cc2cccc(-n3nc(C(N)=O)c4ccccc43)c2)o1 [Compound 26, 1-[3-[(3R)-3-hydroxy-3-(5-methyl-1,3,4-oxadiazol-2-yl)but-1-ynyl]phenyl]indazole-3-carboxamide] | 20000 | 2.52 | 1130 |
| CN1CCC[C@@](O)(C#Cc2cccc(-n3nc(C(N)=O)c4ccc(F)cc43)c2)C1=O [Compound 27, 6-fluoro-1-[3-[2-[(3R)-3-hy-droxy-1-methyl-2-oxo-3-pipe-ridyl]ethynyl]phenyl]inda-zole-3-carboxamide] | 20000 | 3.75 | 322 |
| CN1CC[C@@](O)(C#Cc2cc(-n3nc(C(N)=O)c4cccnc43)ccc2F)C1=O [Compound 31, 1-[4-fluoro-3-[2-[(3R)-3-hy-droxy-1-methyl-2-oxo-pyrroli-din-3-yl]ethynyl]phenyl] pyrazolo[3,4-b]pyridine-3-carboxamide] | 20000 | 0.62 | 67.1 |
| CN1CC[C@@](O)(C#Cc2cccc(-n3nc(C(N)=O)c4cc(CO)ccc43)c2)C1=O [Compound 35, 5-(hydroxymethyl)-1-[3-[2-[(3R)-3-hydroxy-1-methyl-2-oxo-pyrrolidin-3-yl]ethynyl]phenyl]indazole-3-carbox-amide] | 20000 | 1.48 | 737 |
| CN1CC[C@@](O)(C#Cc2cc(-n3nc(C(N)=O)c4cccnc43)cc(C(F)(F)F)c2)C1=O [Compound 36, 1-[3-[2-[(3R)-3-hydroxy-1-methyl-2-oxo-pyrrolidin-3-yl]ethynyl]-5-(trifluorometh-yl)phenyl]pyrazolo[3,4-b] pyridine-3-carboxamide] | 20000 | 5.53 | 164 |
| CN1CC[C@@](O)(C#Cc2cccc(-n3nc(C(N)=O)c4c(Cl)cccc43)c2)C1=O [Compound 39, 4-chloro-1-[3-[2-[(3R)-3-hydroxy-1-methyl-2-oxo-pyrroli-din-3-yl]ethynyl]phenyl] indazole-3-carboxamide] | 20000 | 1.21 | 108 |
| CN1CC[C@@](O)(C#Cc2cccc(-n3nc(C(N)=O)c4cc(CC#N)ccc43)c2)C1=O [Compound 41, 5-(cyanomethyl)-1-[3-[2-[(3R)-3-hydroxy-1-methyl-2-oxo-pyrrolidin-3-yl]ethynyl]phenyl]indazole-3-carboxamide] | 20000 | 0.32 | 52.5 |
| CN1CC[C@@](O)(C#Cc2cccc(-n3nc(C(N)=O)c4cc(C#N)ccc43)c2)C1=O [Compound 42, 5-cyano-1-[3-[2-[(3R)-3-hy-droxy-1-methyl-2-oxo-pyrroli-din-3-yl]ethynyl]phenyl] indazole-3-carboxamide] | 20000 | 0.64 | 392 |
| C[C@@H](O)c1ccc2c(c1)c(C(N)=O)nn2-c1cccc(C#C[C@]2(O)CCN(C)C2=O)c1 [Compound 43, 5-[(1R)-1-hydroxyethyl]-1-[3-[2-[(3R)-3-hydroxy-1-meth-yl-2-oxo-pyrrolidin-3-yl]ethynyl]phenyl]indazole-3-carboxamide] | 20000 | 1.6 | 921 |
| CN1CC[C@@](O)(C#Cc2cc(Cl)cc(-n3nc(C(N)=O)c4cccnc43)c2)C1=O [Compound 44, 1-[3-chloro-5-[2-[(3R)-3-hy-droxy-1-methyl-2-oxo-pyrroli-din-3-yl]ethynyl]phenyl] pyrazolo[3,4-b]pyridine-3-carboxamide] | 20000 | 0.5 | 62 |
| CN1CC[C@@](O)(C#Cc2cccc(-n3nc(C(N)=O)c4ccc(C#N)cc43)c2)C1=O [Compound 46, 6-cyano-1-[3-[2-[(3R)-3-hy-droxy-1-methyl-2-oxo-pyrroli-din-3-yl]ethynyl]phenyl] indazole-3-carboxamide] | 20000 | 0.5 | 123 |
| CNc1nccc2c1c(C(N)=O)nn2-c1cccc(C#C[C@]2(O)CCN(C)C2=O)c1 [Compound 49, 1-[3-[2-[(3R)-3-hydroxy-1-methyl-2-oxo-pyrrolidin-3-yl]ethynyl]phenyl]-4-(meth-ylamino)pyrazolo[4,3-c]pyri-dine-3-carboxamide] | 8000 | 0.05 | 7.7 |
| CN1CC[C@@](O)(C#Cc2ccnc(-n3nc(C(N)=O)c4c3CCC4)c2)C1=O [Compound 56, 1-[4-[2-[(3R)-3-hydroxy-1-methyl-2-oxo-pyrrolidin-3-yl]ethynyl]-2-pyridyl]-5,6-dihydro-4H-cyclopenta[c]py-razole-3-carboxamide] | 20000 | 0.87 | 355 |
| CN1CC[C@@](O)(C#Cc2cccc(-n3nc(C(N)=O)c4c3CCCC4)c2)C1=O [Compound 57, 1-[3-[2-[(3R)-3-hydroxy-1-methyl-2-oxo-pyrrolidin-3-yl]ethynyl]phenyl]-4,5,6,7-tetra-hydroindazole-3-carbox-amide] | 20000 | 1.4 | 405 |
| Cc1cc([C@](C)(O)C#Cc2ccnc(-n3nc(C(N)=O)c4c3CCCC4)c2)no1 [Compound 60, 1-[4-[(3R)-3-hydroxy-3-(5-methylisoxazol-3-yl)but-1-ynyl]-2-pyridyl]-4,5,6,7-tetra-hydroindazole-3-carbox-amide] | 20000 | 13.7 | 2310 |
